Data published in patent EP1126030A1, “THIOREDOXIN REDUCTASE II” (priority 1998, dated 2000).

Target: T1, flag-tag fused TxRIIα protein (Homo sapiens, UniProt Q9NNW7)
T1 construct: made in house
Test: Inhibitor assay (DTNB assay of TxR activity)
Format: biochemical
Details: diluted series of inhibitor; 1 µM flag-tag fused TxRIIα protein, 1 mM NADPH, 10 mM DTNB, pH 7.2; absorbance at 412 nm at 25°C for 5 min (Figure 5)
Protocol: DTNB assay is a method in which TNB caused by the TxR activity from DTNB is measured by the absorbance of a thiol at 412 nm based on the following reaction formula. The purified tag fused TxRIIα protein (1 to 50 µl) was added to the assay buffer 1 to mess up to 1.0 ml. The absorbance at 412 nm was measured at 25°C for 5 min (Figure 3). DTNB + NADPH + H^+ 2TNB + NADP^+
100 mM potassium phosphate pH 7.0, 10 mM EDTA, 0.25 mM NADPH, 0.2 mg/ml bovine serum albumin (BSA), 1% ethanol, 1 mM DTNB
To compare an enzyme activity of the TxRIIs by the present invention, obtained as a recombinant, and an activity of the natural TxR, an effect of an inhibitor was observed. As an inhibitor for the TxR activity, 1-chloro-2, 4-dinitrobenzene (CDNB) and 13-cis-retinoic acid was used. For confirming the TxR activity, the DTNB assay was used.
The diluted series of the inhibitors was prepared with 0.2 ml of HE buffer (100 mM HEPES buffer pH 7.2, 5 mM EDTA) . The tag-fused TxRIIαprotein was prepared at 3 µM and 0.2 ml thereof was added thereto, then 0.2 ml of HE buffer containing 3 mM NADPH and 30 mM DTNB was added thereto. The reaction system of this solution is composed of 100 mM HEPES buffer pH 7.2, 5 mM EDTA, 1 µM flag-tag fused TxRIIα protein, 1 mM NADPH, and 10 mM DTNB. The […] was measured by absorbance of a thiol at 412 nm at 25°C for 5min.

T1 sequence (Q9NNW7 37-524): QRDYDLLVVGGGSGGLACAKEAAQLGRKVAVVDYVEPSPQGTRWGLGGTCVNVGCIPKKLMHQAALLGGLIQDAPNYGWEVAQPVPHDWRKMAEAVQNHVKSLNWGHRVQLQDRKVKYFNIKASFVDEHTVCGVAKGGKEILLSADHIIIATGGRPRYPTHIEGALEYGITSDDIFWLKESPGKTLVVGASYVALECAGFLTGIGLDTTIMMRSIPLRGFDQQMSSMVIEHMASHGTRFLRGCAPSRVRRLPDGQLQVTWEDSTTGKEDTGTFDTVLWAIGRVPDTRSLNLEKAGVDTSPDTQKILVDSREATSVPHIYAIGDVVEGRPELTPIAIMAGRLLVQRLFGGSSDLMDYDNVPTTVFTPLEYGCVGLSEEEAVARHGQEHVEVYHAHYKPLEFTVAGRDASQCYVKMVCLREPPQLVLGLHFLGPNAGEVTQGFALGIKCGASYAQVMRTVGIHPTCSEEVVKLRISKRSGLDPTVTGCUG

CC1=C(/C=C/C(C)=C/C=C/C(C)=C\C(=O)O)C(C)(C)CCC1 [13-cis retinoic acid, 13-cis-retinoic acid]
inhibition of the TxR activity of the purified flag-tag fused TxRIIα protein: effectively inhibited

O=[N+]([O-])c1ccc(Cl)c([N+](=O)[O-])c1 [CDNB, 1-chloro-2,4-dinitrobenzene]
inhibition of the TxR activity of the purified flag-tag fused TxRIIα protein: effectively inhibited
